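At the GI50, growth is halved. At the TGI there is no net growth.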
Tests used:
Experiment in all cases: DTP human tumour cell line panel, 384-well format
MOLT-4 leukemia = tested on: MOLT-4 leukemia
LOX IMVI melanoma = tested on: LOX IMVI melanoma
RPMI-8226 leukemia = tested on: RPMI-8226 leukemia
UO-31 renal = tested on: UO-31 renal
HS 578T breast = tested on: HS 578T breast
EKVX NSCLC = tested on: EKVX NSCLC
SK-MEL-5 melanoma = tested on: SK-MEL-5 melanoma
TK-10 renal = tested on: TK-10 renal
SNB-75 CNS = tested on: SNB-75 CNS
MALME-3M melanoma = tested on: MALME-3M melanoma
UACC-257 melanoma = tested on: UACC-257 melanoma
SR leukemia = tested on: SR leukemia
PC-3 prostate = tested on: PC-3 prostate
786-0 renal = tested on: 786-0 renal
HCC-2998 colon = tested on: HCC-2998 colon
ACHN renal = tested on: ACHN renal
CAKI-1 renal = tested on: CAKI-1 renal
IGROV1 ovarian = tested on: IGROV1 ovarian
SW-620 colon = tested on: SW-620 colon
SF-268 CNS = tested on: SF-268 CNS
MDA-MB-435 melanoma = tested on: MDA-MB-435 melanoma
CCRF-CEM leukemia = tested on: CCRF-CEM leukemia
COLO 205 colon = tested on: COLO 205 colon
NCI-H23 lung = tested on: NCI-H23 lung
MCF7 breast = tested on: MCF7 breast
SNB-19 CNS = tested on: SNB-19 CNS
NCI/ADR-RES ovarian = tested on: NCI/ADR-RES ovarian
HCT-15 colon = tested on: HCT-15 colon
KM12 colon = tested on: KM12 colon
SF-539 CNS = tested on: SF-539 CNS
HOP-62 NSCLC = tested on: HOP-62 NSCLC
MDA-MB-468 breast = tested on: MDA-MB-468 breast
SK-OV-3 ovarian = tested on: SK-OV-3 ovarian
NCI-H322M lung = tested on: NCI-H322M lung
SK-MEL-28 melanoma = tested on: SK-MEL-28 melanoma
BT-549 breast = tested on: BT-549 breast
A498 renal = tested on: A498 renal
M14 melanoma = tested on: M14 melanoma
DU-145 prostate = tested on: DU-145 prostate
HOP-92 NSCLC = tested on: HOP-92 NSCLC
HL-60(TB) leukemia = tested on: HL-60(TB) leukemia
HT29 colon = tested on: HT29 colon
SF-295 CNS = tested on: SF-295 CNS
K-562 leukemia = tested on: K-562 leukemia
NCI-H522 lung = tested on: NCI-H522 lung
MDA-MB-231 breast = tested on: MDA-MB-231 breast
OVCAR-5 ovarian = tested on: OVCAR-5 ovarian
OVCAR-8 ovarian = tested on: OVCAR-8 ovarian
T-47D breast = tested on: T-47D breast
SN12C renal = tested on: SN12C renal
RXF 393 renal = tested on: RXF 393 renal
NCI-H460 NSCLC = tested on: NCI-H460 NSCLC
UACC-62 melanoma = tested on: UACC-62 melanoma
OVCAR-3 ovarian = tested on: OVCAR-3 ovarian
U251 glioblastoma = tested on: U251 glioblastoma
OVCAR-4 ovarian = tested on: OVCAR-4 ovarian
A549 NSCLC = tested on: A549 NSCLC
NCI-H226 lung = tested on: NCI-H226 lung

**Q.** Which results are given for `C=CC(=O)Nc1cccc(Oc2nc(Nc3ccc(N4CCN(C)CC4)cc3OC)ncc2Cl)c1`?
**A.** GI50 (MOLT-4 leukemia): 1500 nM; TGI (MOLT-4 leukemia): 2820 nM; GI50 (LOX IMVI melanoma): 1660 nM; TGI (LOX IMVI melanoma): 3030 nM; GI50 (RPMI-8226 leukemia): 1160 nM; TGI (RPMI-8226 leukemia): 2380 nM; GI50 (UO-31 renal): 1350 nM; TGI (UO-31 renal): 2660 nM; GI50 (HS 578T breast): 1370 nM; TGI (HS 578T breast): 2670 nM; GI50 (EKVX NSCLC): 374 nM; TGI (EKVX NSCLC): 1650 nM; GI50 (SK-MEL-5 melanoma): 1570 nM; TGI (SK-MEL-5 melanoma): 2920 nM; GI50 (TK-10 renal): 788 nM; TGI (TK-10 renal): 2060 nM; GI50 (SNB-75 CNS): 1440 nM; TGI (SNB-75 CNS): 2890 nM; GI50 (MALME-3M melanoma): 1530 nM; TGI (MALME-3M melanoma): 2860 nM; GI50 (UACC-257 melanoma): 1210 nM; TGI (UACC-257 melanoma): 2460 nM; GI50 (SR leukemia): 1560 nM; TGI (SR leukemia): 2890 nM; GI50 (PC-3 prostate): 1700 nM; TGI (PC-3 prostate): 3140 nM; GI50 ([…]-0 renal): 1180 nM; TGI (786-0 renal): 2420 nM; GI50 (HCC-2998 colon): 1570 nM; TGI (HCC-2998 colon): 2930 nM; GI50 (ACHN renal): 440 nM; TGI (ACHN renal): 1710 nM; GI50 (CAKI-1 renal): 765 nM; TGI (CAKI-1 renal): 2050 nM; GI50 (IGROV1 ovarian): 754 nM; TGI (IGROV1 ovarian): 2040 nM; GI50 (SW-620 colon): 1720 nM; TGI (SW-620 colon): 3110 nM; GI50 (SF-268 CNS): 1460 nM; TGI (SF-268 CNS): 2790 nM; GI50 (MDA-MB-435 melanoma): 1710 nM; TGI (MDA-MB-435 melanoma): 3100 nM; GI50 (CCRF-CEM leukemia): 1420 nM; TGI (CCRF-CEM leukemia): 2720 nM; GI50 (COLO 205 colon): 1720 nM; TGI (COLO 205 colon): 3100 nM; GI50 (NCI-H23 lung): 1830 nM; TGI (NCI-H23 lung): 3860 nM; GI50 (MCF7 breast): 1140 nM; TGI (MCF7 breast): 2360 nM; GI50 (SNB-19 CNS): 2600 nM; TGI (SNB-19 CNS): 8340 nM; GI50 (NCI/ADR-RES ovarian): 1510 nM; TGI (NCI/ADR-RES ovarian): 2850 nM; GI50 (HCT-15 colon): 1340 nM; TGI (HCT-15 colon): 2640 nM; GI50 (KM12 colon): 1700 nM; TGI (KM12 colon): 3090 nM; GI50 (SF-539 CNS): 1540 nM; TGI (SF-539 CNS): 2880 nM; GI50 (HOP-62 NSCLC): 1800 nM; TGI (HOP-62 NSCLC): 3510 nM; GI50 (MDA-MB-468 breast): 16.7 nM; TGI (MDA-MB-468 breast): 90.9 nM; GI50 (SK-OV-3 ovarian): 1040 nM; TGI (SK-OV-3 ovarian): 2230 nM; GI50 (NCI-H322M lung): 354 nM; TGI (NCI-H322M lung): 1670 nM; GI50 (SK-MEL-28 melanoma): 1670 nM; TGI (SK-MEL-28 melanoma): 3030 nM; GI50 (BT-549 breast): 1300 nM; TGI (BT-549 breast): 2590 nM; GI50 (A498 renal): 517 nM; TGI (A498 renal): 1890 nM; GI50 (M14 melanoma): 1770 nM; TGI (M14 melanoma): 3160 nM; GI50 (DU-145 prostate): 1320 nM; TGI (DU-145 prostate): 3080 nM; GI50 (HOP-92 NSCLC): 1100 nM; TGI (HOP-92 NSCLC): 2340 nM; GI50 (HL-60(TB) leukemia): 1070 nM; TGI (HL-60(TB) leukemia): 2260 nM; GI50 (HT29 colon): 1650 nM; TGI (HT29 colon): 3020 nM; GI50 (SF-295 CNS): 1870 nM; TGI (SF-295 CNS): 3450 nM; GI50 (K-562 leukemia): 1630 nM; TGI (K-562 leukemia): 3000 nM; GI50 (NCI-H522 lung): 257 nM; TGI (NCI-H522 lung): 1250 nM; GI50 (MDA-MB-231 breast): 1560 nM; TGI (MDA-MB-231 breast): 2950 nM; GI50 (OVCAR-5 ovarian): 1550 nM; TGI (OVCAR-5 ovarian): 3390 nM; GI50 (OVCAR-8 ovarian): 1440 nM; TGI (OVCAR-8 ovarian): 2760 nM; GI50 (T-47D breast): 1110 nM; TGI (T-47D breast): 2320 nM; GI50 (SN12C renal): 1090 nM; TGI (SN12C renal): 2610 nM; GI50 (RXF 393 renal): 1290 nM; TGI (RXF 393 renal): 2570 nM; GI50 (NCI-H460 NSCLC): 1640 nM; TGI (NCI-H460 NSCLC): 3020 nM; GI50 (UACC-62 melanoma): 1560 nM; TGI (UACC-62 melanoma): 2900 nM; GI50 (OVCAR-3 ovarian): 1250 nM; TGI (OVCAR-3 ovarian): 2520 nM; GI50 (U251 glioblastoma): 1690 nM; TGI (U251 glioblastoma): 3090 nM; GI50 (OVCAR-4 ovarian): 1540 nM; TGI (OVCAR-4 ovarian): 4150 nM; GI50 (A549 NSCLC): 1230 nM; TGI (A549 NSCLC): 2480 nM; GI50 (NCI-H226 lung): 1130 nM; TGI (NCI-H226 lung): 2520 nM
